# In patent US5840740A, “Aminosterol compounds and a method of treating infection using the aminosterol compounds” (priority 1995, dated 1998):
# Entries after “also recorded” stand apart in the source; their conditions may differ.
# Key:
# [1] = Fasting blood glucose in mice; format: in vivo, mouse (male CD-1); conditions: mouse, in vivo, iv
# Procedure: To study the effect of steroid administrator or the NHE responsible for secretion of insulin, several of the aminosterols from shark liver were administered to fasting mice. Male CD-1 mice were assigned to one of four treatment groups. Whole blood glucose was tested using glucometer (Lifescan Glucometer II and One Touch test strips). Statistical analysis was via one-way analysis of variance (ANOVA) followed by subsequent Bonferonni's t-test.
# [2] = tested on: Human ovarian carcinoma SKOV3; assay: Growth inhibition in vitro; format: cell-based; conditions: in words
# Excerpt: As set forth in Table 7 below, all malignant tumors evaluated in tissue culture, endothelial cells and vascular smooth muscle cells were sensitive to inhibition. Thus, compound 1436 has application in the control of growth factor dependent proliferation of many types of tissue.
# [3] = tested on: chick embryo vitelline capillaries; assay: Chick embryo vitelline capillary regression assay; format: in vivo; set-up: key to vascular reactivity (capillary regression): +: Vascular reactivity; 0: No vascular reactivity; +/-: Equivocal reactivity; conditions: for Chick embryo diss. assay, Minimum Effective Concentration: Table II; for vascular reactivity (capillary regression): 60 min; for effect on chick embryo vessels / blood: in words
# Procedure: Using the chick embryo vitelline capillaries assay, compounds were tested for their ability to induce capillary regression. Each compound was applied in 0.1 ml of 15% Ficol 400 and PBS onto the embryo, and vascular regression was assessed after 60 minutes.
# The 3-day chick embryo consists of an embryonic disc from which numerous vessels emerge and return, forming a "figure 8"-shaped structure--the embryo in the center with vascular loops extending outward over both poles. […] Following a lag period of around 15 minutes, the constriction of continuity between capillary and secondary vessels, generally on the "avenous" side, was observed. Continued pulsatile blood flow progressed, resulting in a "swelling" of the blind tube, followed by a pinching off of the remaining connection and formation of an enclosed vascular sac resembling a "blood island." This process progressed until only the largest vessels remained intact.
# NHE1β = conditions: background, nucleated erythrocytes; cited from earlier work
# human melanoma = assay: Growth of human melanoma cells over time / cell death; format: cell-based
# Xenopus tadpole = conditions: stage 59-60, 10 μg/ml; in words
# [4] = Hematological profile in L1210-inoculated mice
# Excerpt: C57B mice were inoculated with L1210 lymphoblastic leukemia cells at an inoculum that causes leukemia in 100% of animals.
# [5] = tested on: human microvascular cells; assay: Inhibition of endothelial cell cord formation in vitro; format: cell-based; conditions: Homo sapiens, Endothelial cell; Table II; read-out: Cord Formation, Minimum Effective Concentration
# Excerpt: Endothelial cells have the capacity in vitro to form tubular aggregates resembling capillaries in various early stages of formation. This conversion occurs under relatively specific conditions, in which essential growth factors along with an effective substratum are provided. It has been shown that both the interaction of growth factors with the endothelial cell and its attachment to a substratum activate the NHE. The activation of this exchanger is believed to be required for subsequent morphologic transformation of the endothelial cell into a multicellular tubular structure.
# To assess the effect of compounds on the cord-like structures formed by human microvascular cells when plated in the presence of VEFG (Vascular Endothelial Growth Factor) and basic fibroblast growth factor on a collagen matrix, a standard cord formation assay was used.
# B16 melanoma = B16 melanoma growth in C57B mice; format: in vivo, mouse; conditions: compound 319, text subcutaneous, FIG. 6 legend intraperitoneal
# Procedure: The growth of B16 melanoma in C57B mice is dependent upon neovascularization.
# Using the growth of B16 melanoma cells in C57B mice, a recognized model for the evaluation of inhibitors of angiogenesis on the growth of cancers, the effects of subcutaneous, intraperitoneal and oral administration of squalamine were evaluated.
# In this model, there was observed little evidence of metastasis with or without treatment with chemotherapeutic agents.
# Based on the idea that tumor growth involves both the clonal expansion of a malignant cell along with the development of a supporting vascular supply, a combination of compound 1436 with squalamine was tested to determine whether it would achieve a synergistic effect on solid tumor growth. This concept was evaluated in the B16 melanoma model.
# Animals were implanted with B16 melanoma followed by treatment with compound 1436 or 1256 administered in a combined schedule or separately. […] Thus, a combination of these two compounds achieves a therapeutic benefit in tumors dependent on neovascularization that may prevent metastatic spread.
# [6] = L1210 mice, cisplatin 8 mg/kg ip or compound 1436 10 mg/kg ip q4d
compound,measurement,setting,value
CC(C)C(CO)(CC[C@@H](C)[C@H]1CC[C@H]2[C@@H]3[C@H](O)C[C@H]4C[C@@H](NCCCNCCCCN)CC[C@]4(C)[C@H]3CC[C@]12C)OS(=O)(=O)O (stereo partly drawn) [Compound 1437],hyperglycemia,[1],caused hyperglycemia in mice
same,anticancer activity,[2],"anticancer activity against the human ovarian carcinoma, SKOV3"
same,"Chick embryo diss. assay, Minimum Effective Concentration",[3],> 1 µg
N=C(N)NC(=O)c1nc(Cl)c(N)nc1N [Amiloride],inhibition of NHE1β,NHE1β,inhibited by high concentrations of amiloride
CC(C)CCC[C@@H](C)[C@H]1CC[C@H]2[C@@H]3CC[C@H]4C[C@@H](NCCCNCCCCNCCCN)CC[C@]4(C)[C@H]3CC[C@]12C [Compound 353],vascular reactivity (capillary regression),[3]; 1 μg applied,+/-
same,"Chick embryo diss. assay, Minimum Effective Concentration",[3],> 1 µg
same,effect on chick embryo vessels / blood,[3],no effect on the chick embryo capillary bed
same,effect on growth of melanoma,human melanoma; 48 hours vs first 12 hours,"most pronounced over 48 hours, with less of an effect noted within the first 12 hours of incubation"
same,mode of cell death / activity against melanoma,human melanoma; in words,potent activity against melanoma and a number of cancer cells; also recorded: apoptotic cell death has been induced
same,pharmacological response in tadpole,Xenopus tadpole,effects like those produced by compound 1436
N.N.[Cl][Pt][Cl] [Cisplatin],"RBC, Early Time",[4]; [6],9.4 10^6 /mm^3
same,"RBC, Late Time",[4]; [6],1.5 10^6 /mm^3
same,"WBC, Early Time",[4]; [6],8.1 10^3 /mm^3
same,"WBC, Late Time",[4]; [6],18.1 10^3 /mm^3
same,hematological profile,[4]; in words,profound anemia by day 28
COC(=O)CC[C@@H](C)[C@H]1CC[C@H]2[C@@H]3[C@H](O)C[C@@H]4C[C@@H](NCCN)CC[C@]4(C)[C@H]3CC[C@]12C [Compound 409],vascular reactivity (capillary regression),[3]; 1 μg applied,0
same,"Chick embryo diss. assay, Minimum Effective Concentration",[3],> 1 µg
same,pharmacological response in tadpole,Xenopus tadpole,functionally similar to compound 1437
COC(=O)CC[C@@H](C)[C@H]1CC[C@H]2[C@@H]3CC[C@H]4C[C@H](NCCCNCCCCNCCCN)CC[C@]4(C)[C@H]3CC[C@]12C [Compound 458],"Chick embryo diss. assay, Minimum Effective Concentration",[3],> 1 µg
same,pharmacological response in tadpole,Xenopus tadpole,pharmacologic activity similar to that seen for FX 3
C[C@H](CCC(=O)O)[C@H]1CC[C@H]2[C@@H]3CC[C@H]4C[C@@H](NCCCNCCCCN)CC[C@]4(C)[C@H]3CC[C@]12C [Compound 319],minimal effective concentration,[5],13.8 µg/mL
same,vascular reactivity (capillary regression),[3]; 0.001 μg applied,+/-
same,vascular reactivity (capillary regression),[3]; 0.01 μg applied,+
same,vascular reactivity (capillary regression),[3]; 0.1 μg applied,+
same,vascular reactivity (capillary regression),[3]; 1 μg applied,+
same,vascular reactivity (capillary regression),[3]; 10 μg applied,+
same,"Chick embryo diss. assay, Minimum Effective Concentration",[3],0.001 µg
same,effect on chick embryo vessels / blood,[3],especially active
same,suppression of B16 melanoma tumor growth,B16 melanoma,achieved control of B16 in C57B mice to an extent almost comparable to squalamine
same,suppression of B16 melanoma tumor growth,B16 melanoma; listed as compound 319,suppression of murine melanoma in mice
same,pharmacological response in tadpole,Xenopus tadpole,common vascular occlusive effect
COC(=O)CC[C@@H](C)[C@H]1CC[C@H]2[C@@H]3C[C@@H](O)[C@H]4C[C@H](NCCN)CC[C@]4(C)[C@H]3CC[C@]12C [Compound 431],"Chick embryo diss. assay, Minimum Effective Concentration",[3],> 1 µg
same,pharmacological response in tadpole,Xenopus tadpole,functionally similar to compound 1437
